Source: patent US8304446B2, “Compounds” (Glaxo Group Limited, priority 2009, dated 2012)
Counter-ions that a name gives are not always drawn.

Legend:
[1] = biological target: T1, CCR4 (Homo sapiens, UniProt P51679); test: [35S]-GTPγS SPA binding assay for CCR4 antagonist activity; type: biochemical; conditions: CCR4 expressing CHO membranes; human MDC at EC80; [35S]-GTPγS competition
T1 construct: expressed in transfected cells; host or cells: CHO cell membranes
T1 sequence (P51679 1-360): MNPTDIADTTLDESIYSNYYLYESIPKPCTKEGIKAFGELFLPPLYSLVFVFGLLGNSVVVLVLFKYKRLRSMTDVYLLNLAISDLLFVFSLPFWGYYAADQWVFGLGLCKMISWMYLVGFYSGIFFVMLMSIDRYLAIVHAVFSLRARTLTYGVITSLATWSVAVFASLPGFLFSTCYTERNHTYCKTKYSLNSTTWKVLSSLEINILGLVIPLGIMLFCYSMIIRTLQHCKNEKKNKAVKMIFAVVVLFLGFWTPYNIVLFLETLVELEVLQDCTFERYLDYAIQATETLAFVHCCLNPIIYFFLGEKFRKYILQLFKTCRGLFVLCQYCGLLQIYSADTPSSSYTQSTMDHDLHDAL
Experimental: [35S]-GTPγS SPA Binding Assays for CCR4 Antagonist Activity
Antagonist potency was determined by a radioligand [35S]-GTPγS competition assay. Briefly, CCR4 expressing CHO membranes were homogenised by passing through a 23G needle. These membranes were then adhered to WGA-coated Leadseeker SPA beads in assay buffer (20 mM HEPES, 10 mM MgCl2, 100 mM NaCl, 0.05% BSA, 40 ug/ml Saponin and pH adjusted to 7.4 using KOH 5M) to generate a 3 μg/well final assay concentration (FAC) membrane and 250 μg/well FAC bead, solution.
The bead/membrane/[35S]-GTPγS/Agonist suspension was dispensed into white Greiner polypropylene 384-well plates (45 μl/well), containing 0.5 μl of compound. […] Plates were then read on a Viewlux instrument and luminescence was then plotted as a percentage of the maximum inhibitional response elicited by an IC100 of a standard antagonist.

[2] = tested on: CD4+ CCR4+ T cells; test: Chemokine stimulated increases in cellular F-actin content; type: cell-based; conditions: Homo sapiens, T-cell, 0.5 h; PBMC from normal volunteers; antagonist 30 min at 37° C. before agonist for 15 sec; F-actin content by flow cytometry; read-out: pA2 (converted)
Procedure, shortened: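 Human PBMC from citrated volunteer blood, stained for CD4 and CCR4, were pre-incubated with antagonist or vehicle (0.1% DMSO) for 30 min at 37 °C, then stimulated with agonist for 15 s and formaldehyde-fixed. F-actin was stained with phalloidin and read by flow cytometry as CD4+CCR4+ MFI relative to CD4+CCR4− cells.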

| IC50 [1] [nM] | Structure (SMILES) | Kb [2] [nM] |
| --- | --- | --- |
| 3.98 to 15.8 | COc1cccc2c1c(NS(=O)(=O)c1ccc(Cl)s1)nn2Cc1cccc(CNC(=O)C2COCCN2C)c1 (single isomer, unassigned; enantiomer 1) [Example 124, N-[(3-{[3-{[(5-Chloro-2-thienyl)sulfonyl]amino}-4-(methyloxy)-1H-indazol-1-yl]methyl}phenyl)methyl]-4-methyl-3-morpholinecarboxamide Enantiomer 1] | ≤ 126 |
| 3.98 to 15.8 | CCC(=O)NCc1cccc(Cn2nc(NS(=O)(=O)c3ccc(Cl)s3)c3c(OC)cccc32)c1 [Example 2, N-[(3-{[3-{[(5-chloro-2-thienyl)sulfonyl]amino}-4-(methyloxy)-1H-indazol-1-yl]methyl}phenyl)methyl]propanamide] | ≤ 126 |
| 3.98 to 15.8 | COc1cccc2c1c(NS(=O)(=O)c1ccc(Cl)s1)nn2Cc1cccc(CNC(=O)C(C)C)c1 [Example 3, N-[(3-{[3-{[(5-chloro-2-thienyl)sulfonyl]amino}-4-(methyloxy)-1H-indazol-1-yl]methyl}phenyl)methyl]-2-methylpropanamide] | ≤ 126 |
| 3.98 to 15.8 | COc1cccc2c1c(NS(=O)(=O)c1ccc(Cl)s1)nn2Cc1cccc(CNC(=O)C(C)(C)C)c1 [Example 4, N-[(3-{[3-{[(5-chloro-2-thienyl)sulfonyl]amino}-4-(methyloxy)-1H-indazol-1-yl]methyl}phenyl)methyl]-2,2-dimethylpropanamide] | ≤ 126 |
| 3.98 to 15.8 | COc1cccc2c1c(NS(=O)(=O)c1ccc(Cl)s1)nn2Cc1cccc(CNC(=O)[C@H]2COCCN2)c1 [Example 7, (3R)—N-[(3-{[3-{[(5-Chloro-2-thienyl)sulfonyl]amino}-4-(methyloxy)-1H-indazol-1-yl]methyl}phenyl)methyl]-3-morpholinecarboxamide hydrochloride] | ≤ 126 |
| 3.98 to 15.8 | COc1cccc2c1c(NS(=O)(=O)c1ccc(Cl)s1)nn2Cc1cccc(CNC(=O)[C@@H]2COCCN2)c1 [Example 8, (3S)—N-[(3-{[3-{[(5-Chloro-2-thienyl)sulfonyl]amino}-4-(methyloxy)-1H-indazol-1-yl]methyl}phenyl)methyl]-3-morpholinecarboxamide hydrochloride] | ≤ 126 |
| 3.98 to 15.8 | CN[C@H](C)C(=O)NCc1cccc(Cn2nc(NS(=O)(=O)c3ccc(Cl)s3)c3c(OC)cccc32)c1 [Example 10, N^1-[(3-{[3-{[(5-chloro-2-thienyl)sulfonyl]amino}-4-(methyloxy)-1H-indazol-1-yl]methyl}phenyl)methyl]-N^2-methyl-D-alaninamide hydrochloride] | ≤ 126 |
| 100 to 398 | COc1cccc2c1c(NS(=O)(=O)c1ccc(C)s1)nn2Cc1ccc(CNC(=O)[C@H]2COCCN2)cc1 [Example 120, (3R)—N-({4-[(4-(methyloxy)-3-{[(5-methyl-2-thienyl)sulfonyl]amino}-1H-indazol-1-yl)methyl]phenyl}methyl)-3-morpholinecarboxamide trifluoroacetate] |  |
| 3.98 to 15.8 | COc1cccc2c1c(NS(=O)(=O)c1ccc(Cl)s1)nn2Cc1cccc(CNC(=O)C(C)(C)N)c1 [Example 127, N^1-[(3-{[3-{[(5-Chloro-2-thienyl)sulfonyl]amino}-4-(methyloxy)-1H-indazol-1-yl]methyl}phenyl)methyl]-2-methylalaninamide] |  |
| 3.98 to 15.8 | COc1cc(F)cc2c1c(NS(=O)(=O)c1ccc(Cl)s1)nn2Cc1cccc(CNC(=O)C2COCCN2C)c1 (centres unmarked) [Example 133, N-[(3-{[3-{[(5-Chloro-2-thienyl)sulfonyl]amino}-6-fluoro-4-(methyloxy)-1H-indazol-1-yl]methyl}phenyl)methyl]-4-methyl-3-morpholinecarboxamide] |  |
| 3.98 to 15.8 | COc1c(F)ccc2c1c(NS(=O)(=O)c1ccc(Cl)s1)nn2Cc1cccc(CNC(C)=O)c1 [Example 134, N-[(3-{[3-{[(5-Chloro-2-thienyl)sulfonyl]amino}-5-fluoro-4-(methyloxy)-1H-indazol-1-yl]methyl}phenyl)methyl]acetamide] |  |
| 3.98 to 15.8 | COc1cccc2c1c(NS(=O)(=O)c1ccc(Cl)s1)nn2Cc1cccc(CNC(=O)CCC(=O)O)c1 [Example 138, 4-{[(3-{[3-{[(5-Chloro-2-thienyl)sulfonyl]amino}-4-(methyloxy)-1H-indazol-1-yl]methyl}phenyl)methyl]amino}-4-oxobutanoic acid] |  |
| 3.98 to 15.8 | COc1cccc2c1c(NS(=O)(=O)c1ccc(Cl)s1)nn2Cc1cccc(CNC(=O)CCCC(=O)O)c1 [Example 139, 5-{[(3-{[3-{[(5-Chloro-2-thienyl)sulfonyl]amino}-4-(methyloxy)-1H-indazol-1-yl]methyl}phenyl)methyl]amino}-5-oxopentanoic acid] |  |
| 3.98 to 15.8 | COc1cccc2c1c(NS(=O)(=O)c1ccc(Cl)s1)nn2Cc1cccc(CNC(=O)CCCCC(=O)O)c1 [Example 140, 6-{[(3-{[3-{[(5-Chloro-2-thienyl)sulfonyl]amino}-4-(methyloxy)-1H-indazol-1-yl]methyl}phenyl)methyl]amino}-6-oxohexanoic acid] |  |
| 3.98 to 15.8 | COc1cccc2c1c(NS(=O)(=O)c1ccc(Cl)s1)nn2Cc1cccc(CNC(=O)c2ccc(C(=O)O)cc2)c1 [Example 142, 4-({[(3-{[3-{[(5-Chloro-2-thienyl)sulfonyl]amino}-4-(methyloxy)-1H-indazol-1-yl]methyl}phenyl)methyl]amino}carbonyl)benzoic acid] |  |
| 3.98 to 15.8 | COc1cccc2c1c(NS(=O)(=O)c1ccc(Cl)s1)nn2Cc1cccc(CNC(=O)[C@H]2CC[C@H](C(=O)O)CC2)c1 [Example 143, trans-4-({[(3-{[3-{[(5-Chloro-2-thienyl)sulfonyl]amino}-4-(methyloxy)-1H-indazol-1-yl]methyl}phenyl)methyl]amino}carbonyl)cyclohexanecarboxylic acid] |  |
| 3.98 to 15.8 | COc1cccc2c1c(NS(=O)(=O)c1ccc(Cl)s1)nn2Cc1cccc(CNC(=O)CCCCCCC(=O)O)c1 [Example 144, 8-{[(3-{[3-{[(5-Chloro-2-thienyl)sulfonyl]amino}-4-(methyloxy)-1H-indazol-1-yl]methyl}phenyl)methyl]amino}-8-oxooctanoic acid] |  |
| 3.98 to 15.8 | CC(=O)NCc1cccc(Cn2nc(NS(=O)(=O)c3ccc(Cl)s3)c3c(CO)cccc32)c1 [Example 148, N-[(3-{[3-{[(5-Chloro-2-thienyl)sulfonyl]amino}-4-(hydroxymethyl)-1H-indazol-1-yl]methyl}phenyl)methyl]acetamide] |  |
| 3.98 to 15.8 | CC(=O)NCc1cccc(Cn2nc(NS(=O)(=O)c3ccc(Cl)s3)c3c(C(C)O)cccc32)c1 (centres unmarked) [Example 149, N-[(3-{[3-{[(5-Chloro-2-thienyl)sulfonyl]amino}-4-(1-hydroxyethyl)-1H-indazol-1-yl]methyl}phenyl)methyl]acetamide] |  |
| 3.98 to 15.8 | CC(O)c1cccc2c1c(NS(=O)(=O)c1ccc(Cl)s1)nn2Cc1cccc(CNC(=O)C(C)(C)O)c1 (centres unmarked) [Example 151, N-[(3-{[3-{[(5-Chloro-2-thienyl)sulfonyl]amino}-4-(1-hydroxyethyl)-1H-indazol-1-yl]methyl}phenyl)methyl]-2-hydroxy-2-methylpropanamide] |  |
| 3.98 to 15.8 | CC(O)c1cccc2c1c(NS(=O)(=O)c1ccc(Cl)s1)nn2Cc1cccc(CNC(=O)[C@H]2COCCN2)c1 (stereo partly drawn) [Example 152, (3R)—N-[(3-{[3-{[(5-Chloro-2-thienyl)sulfonyl]amino}-4-(1-hydroxyethyl)-1H-indazol-1-yl]methyl}phenyl)methyl]-3-morpholinecarboxamide formate salt] |  |
| 3.98 to 15.8 | CC(O)c1cccc2c1c(NS(=O)(=O)c1ccc(Cl)s1)nn2Cc1cccc(CNC(=O)[C@@H]2COCCN2)c1 (stereo partly drawn) [Example 153, (3S)—N-[(3-{[3-{[(5-Chloro-2-thienyl)sulfonyl]amino}-4-(1-hydroxyethyl)-1H-indazol-1-yl]methyl}phenyl)methyl]-3-morpholinecarboxamide formate salt] |  |
| 100 to 398 | CC(C)(O)c1cccc2c1c(NS(=O)(=O)c1ccc(Cl)s1)nn2Cc1cccc(CNC(=O)[C@@H]2COCCN2)c1 [Example 156, (3S)—N-[(3-{[3-{[(5-Chloro-2-thienyl)sulfonyl]amino}-4-(1-hydroxy-1-methylethyl)-1H-indazol-1-yl]methyl}phenyl)methyl]-3-morpholinecarboxamide] |  |

| Structure (SMILES) | IC50 [1] [nM] | Kb [2] [nM] |
| --- | --- | --- |
| COc1cccc2c1c(NS(=O)(=O)c1ccc(Cl)s1)nn2Cc1cccc(CNC(=O)C2COCCN2)c1 (centres unmarked) [Example 6, N-[(3-{[3-{[(5-chloro-2-thienyl)sulfonyl]amino}-4-(methyloxy)-1H-indazol-1-yl]methyl}phenyl)methyl]-3-morpholinecarboxamide trifluoroacetate] | 3.98 to 15.8 | ≤ 126 |
